# Experiments:
# Assay in all cases: KINOMEscan
# Format in all cases: binding
# Details in all cases: 2000 nM
# KIT-autoinhibited = biological target: T1, KIT-autoinhibited (Homo sapiens, UniProt P10721)
# T1 construct: purchased KINOMEscan (DiscoveRx) panel service
# MEK5 = biological target: T2, MEK5 (Homo sapiens, UniProt Q13163)
# T2 construct: purchased DiscoveRx (KINOMEscan scanMAX panel, service)
# [1] = biological target: T3, JAK1(JH1domain-catalytic) (Homo sapiens, UniProt P23458)
# T3 construct: JAK1(JH1domain-catalytic); DNA label (qPCR read-out); purchased KINOMEscan (DiscoveRx) ScanMAX panel
# FLT3 = biological target: T4, FLT3 (Homo sapiens, UniProt P36888)
# T4 construct: purchased DiscoveRx (KINOMEscan scanMAX panel)
# LOK = biological target: T5, LOK (Homo sapiens, UniProt O94804)
# T5 construct: purchased KINOMEscan (DiscoveRx) panel service
# BRSK2 = biological target: T6, BRSK2 (Homo sapiens, UniProt Q8IWQ3)
# T6 construct: DNA label (for qPCR read-out); purchased KINOMEscan scanMAX panel (DiscoveRx)
# GRK1 = biological target: T7, GRK1 (Homo sapiens, UniProt Q15835)
# T7 construct: purchased KINOMEscan (DiscoveRx)
# ADCK4 = biological target: T8, ADCK4 (Homo sapiens, UniProt Q96D53)
# T8 construct: purchased DiscoveRx (KINOMEscan scanMAX panel, service)
# MEK2 = biological target: T9, MEK2 (Homo sapiens, UniProt P36507)
# T9 construct: purchased DiscoveRx (KINOMEscan scanMAX panel, service)
# [2] = biological target: T10, EGFR(L747-E749del, A750P) (Homo sapiens, UniProt P00533, A750P/DEL747-749)
# T10 construct: purchased DiscoveRx (KINOMEscan scanMAX panel)
# TGFBR1 = biological target: T11, TGFBR1 (Homo sapiens, UniProt P36897)
# T11 construct: DNA label (for qPCR read-out); purchased DiscoveRx (KINOMEscan scanMAX panel, contract assay)
# [3] = biological target: T12, JAK3(JH1domain-catalytic) (Homo sapiens, UniProt P52333)
# T12 construct: JAK3(JH1domain-catalytic); DNA label (for qPCR read-out); purchased DiscoveRx (KINOMEscan scanMAX panel)
# KIT(V559D) = biological target: T13, KIT(V559D) (Homo sapiens, UniProt P10721, V559D)
# T13 construct: DNA label (for qPCR read-out); purchased DiscoveRx (KINOMEscan scanMAX panel)
# INSR = biological target: T14, INSR (Homo sapiens, UniProt P06213)
# T14 construct: DNA label (qPCR read-out); purchased KINOMEscan (DiscoveRx) ScanMAX panel
# TSSK1B = biological target: T15, TSSK1B (Homo sapiens, UniProt Q9BXA7)
# T15 construct: DNA label (for qPCR read-out); purchased DiscoveRx (KINOMEscan scanMAX panel)
# MAP3K15 = biological target: T16, MAP3K15 (Homo sapiens, UniProt Q6ZN16)
# T16 construct: DNA label (qPCR read-out); purchased DiscoverX (KINOMEscan service)
# TNK2 = biological target: T17, TNK2 (Homo sapiens, UniProt Q07912)
# T17 construct: DNA label (qPCR read-out); purchased KINOMEscan (DiscoveRx) ScanMAX panel
# CDK5 = biological target: T18, CDK5 (Homo sapiens, UniProt Q00535)
# T18 construct: purchased DiscoverX (KINOMEscan service)
# AURKA = biological target: T19, AURKA (Homo sapiens, UniProt O14965)
# T19 construct: DNA label (qPCR read-out); purchased KINOMEscan scanMAX panel (DiscoveRx)
# ACVR1 = biological target: T20, ACVR1 (Homo sapiens, UniProt Q04771)
# T20 construct: purchased DiscoveRx (KINOMEscan scanMAX panel, service)
# ERK4 = biological target: T21, ERK4 (Homo sapiens, UniProt P31152)
# T21 construct: DNA label (qPCR read-out); purchased DiscoveRx (KINOMEscan ScanMAX panel)
# PAK3 = biological target: T22, PAK3 (Homo sapiens, UniProt O75914)
# T22 construct: purchased DiscoverX (KINOMEscan service)
# BMPR2 = biological target: T23, BMPR2 (Homo sapiens, UniProt Q13873)
# T23 construct: DNA label (for qPCR read-out); purchased KINOMEscan scanMAX panel (DiscoveRx)
# PAK6 = biological target: T24, PAK6 (Homo sapiens, UniProt Q9NQU5)
# T24 construct: purchased DiscoverX (KINOMEscan service)
# YANK2 = biological target: T25, YANK2 (Homo sapiens, UniProt Q9NY57)
# T25 construct: purchased KINOMEscan (DiscoveRx) panel service
# NEK5 = biological target: T26, NEK5 (Homo sapiens, UniProt Q6P3R8)
# T26 construct: DNA label (qPCR read-out); purchased KINOMEscan (ScanMAX panel service)
# DYRK2 = biological target: T27, DYRK2 (Homo sapiens, UniProt Q92630)
# T27 construct: DNA label (qPCR read-out); purchased KINOMEscan (DiscoveRx) panel
# CAMK4 = biological target: T28, CAMK4 (Homo sapiens, UniProt Q16566)
# T28 construct: DNA label (qPCR read-out); purchased KINOMEscan (ScanMAX panel service)
# PCTK3 = biological target: T29, PCTK3 (Homo sapiens, UniProt Q07002)
# T29 construct: DNA label (for qPCR read-out); purchased DiscoveRx (KINOMEscan scanMAX service)
# ERN1 = biological target: T30, ERN1 (Homo sapiens, UniProt O75460)
# T30 construct: DNA label (qPCR read-out); purchased DiscoveRx (KINOMEscan ScanMAX panel)
# NEK1 = biological target: T31, NEK1 (Homo sapiens, UniProt Q96PY6)
# T31 construct: DNA label (for qPCR read-out); purchased KINOMEscan scanMAX panel (DiscoveRx)
# ERK3 = biological target: T32, ERK3 (Homo sapiens, UniProt Q16659)
# T32 construct: DNA label (qPCR read-out); purchased DiscoveRx (KINOMEscan ScanMAX panel)
# FER = biological target: T33, FER (Homo sapiens, UniProt P16591)
# T33 construct: DNA label (qPCR read-out); purchased DiscoveRx (KINOMEscan ScanMAX panel)
# EPHB6 = biological target: T34, EPHB6 (Homo sapiens, UniProt O15197)
# T34 construct: DNA label (qPCR read-out); purchased DiscoveRx (KINOMEscan ScanMAX panel)
# T20 sequence (Q04771 21-509): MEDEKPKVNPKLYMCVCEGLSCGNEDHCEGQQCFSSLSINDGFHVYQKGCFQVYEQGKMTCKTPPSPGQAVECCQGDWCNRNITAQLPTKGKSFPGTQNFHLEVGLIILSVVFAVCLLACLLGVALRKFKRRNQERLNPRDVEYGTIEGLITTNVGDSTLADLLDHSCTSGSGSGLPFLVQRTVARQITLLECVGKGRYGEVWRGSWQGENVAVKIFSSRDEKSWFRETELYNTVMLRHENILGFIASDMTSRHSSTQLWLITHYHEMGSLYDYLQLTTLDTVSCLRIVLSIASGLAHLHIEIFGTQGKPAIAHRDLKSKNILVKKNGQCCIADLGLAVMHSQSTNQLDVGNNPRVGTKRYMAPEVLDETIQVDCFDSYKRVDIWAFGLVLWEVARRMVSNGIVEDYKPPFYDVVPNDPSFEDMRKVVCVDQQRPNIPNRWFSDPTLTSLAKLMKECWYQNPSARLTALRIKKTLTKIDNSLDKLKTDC
# T29 sequence (Q07002 whole entry): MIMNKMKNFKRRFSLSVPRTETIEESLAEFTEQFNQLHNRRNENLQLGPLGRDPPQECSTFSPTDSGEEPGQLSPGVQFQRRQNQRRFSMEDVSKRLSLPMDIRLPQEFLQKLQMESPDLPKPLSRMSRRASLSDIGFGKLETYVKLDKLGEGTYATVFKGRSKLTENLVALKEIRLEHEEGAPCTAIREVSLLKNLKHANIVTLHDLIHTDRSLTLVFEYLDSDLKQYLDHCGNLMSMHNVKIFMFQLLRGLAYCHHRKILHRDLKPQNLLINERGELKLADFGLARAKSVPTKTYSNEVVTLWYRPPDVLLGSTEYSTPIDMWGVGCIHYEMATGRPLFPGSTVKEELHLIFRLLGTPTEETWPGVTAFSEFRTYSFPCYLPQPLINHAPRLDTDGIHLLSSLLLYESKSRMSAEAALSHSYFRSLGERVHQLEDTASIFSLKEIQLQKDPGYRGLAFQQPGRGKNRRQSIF
# T16 sequence (Q6ZN16 whole entry): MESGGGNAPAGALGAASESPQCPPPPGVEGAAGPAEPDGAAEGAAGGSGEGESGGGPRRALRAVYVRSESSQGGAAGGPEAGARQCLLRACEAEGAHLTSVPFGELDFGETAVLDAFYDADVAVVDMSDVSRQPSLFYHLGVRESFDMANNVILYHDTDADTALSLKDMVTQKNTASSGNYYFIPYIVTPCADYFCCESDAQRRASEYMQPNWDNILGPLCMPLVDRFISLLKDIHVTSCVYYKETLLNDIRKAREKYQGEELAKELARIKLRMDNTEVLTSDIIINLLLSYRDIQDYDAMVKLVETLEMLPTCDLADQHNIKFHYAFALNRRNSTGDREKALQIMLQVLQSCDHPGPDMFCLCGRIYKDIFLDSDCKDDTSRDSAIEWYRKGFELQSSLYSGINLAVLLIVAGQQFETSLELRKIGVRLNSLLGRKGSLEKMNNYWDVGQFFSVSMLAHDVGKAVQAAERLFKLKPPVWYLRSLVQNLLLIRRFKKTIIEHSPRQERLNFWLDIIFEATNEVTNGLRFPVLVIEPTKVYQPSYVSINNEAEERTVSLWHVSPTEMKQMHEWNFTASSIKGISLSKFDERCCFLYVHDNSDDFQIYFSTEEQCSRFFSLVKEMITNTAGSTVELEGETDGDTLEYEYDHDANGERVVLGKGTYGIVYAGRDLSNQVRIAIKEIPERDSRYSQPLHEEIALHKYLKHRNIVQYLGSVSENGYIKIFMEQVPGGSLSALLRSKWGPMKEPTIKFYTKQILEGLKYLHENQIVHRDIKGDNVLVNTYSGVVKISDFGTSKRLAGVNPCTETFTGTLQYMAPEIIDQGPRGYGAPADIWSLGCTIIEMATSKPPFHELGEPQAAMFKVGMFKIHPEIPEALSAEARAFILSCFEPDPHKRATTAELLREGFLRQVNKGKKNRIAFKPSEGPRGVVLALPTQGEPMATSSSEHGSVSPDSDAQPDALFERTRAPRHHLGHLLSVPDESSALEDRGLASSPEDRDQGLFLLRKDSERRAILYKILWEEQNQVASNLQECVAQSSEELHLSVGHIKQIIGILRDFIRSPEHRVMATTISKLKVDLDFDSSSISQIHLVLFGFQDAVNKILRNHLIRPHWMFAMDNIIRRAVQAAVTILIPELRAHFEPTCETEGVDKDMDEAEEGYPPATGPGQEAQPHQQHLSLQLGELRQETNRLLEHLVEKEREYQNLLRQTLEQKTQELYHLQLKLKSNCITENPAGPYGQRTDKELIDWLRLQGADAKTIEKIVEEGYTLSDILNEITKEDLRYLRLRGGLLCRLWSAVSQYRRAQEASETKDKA
# T19 sequence (O14965 whole entry): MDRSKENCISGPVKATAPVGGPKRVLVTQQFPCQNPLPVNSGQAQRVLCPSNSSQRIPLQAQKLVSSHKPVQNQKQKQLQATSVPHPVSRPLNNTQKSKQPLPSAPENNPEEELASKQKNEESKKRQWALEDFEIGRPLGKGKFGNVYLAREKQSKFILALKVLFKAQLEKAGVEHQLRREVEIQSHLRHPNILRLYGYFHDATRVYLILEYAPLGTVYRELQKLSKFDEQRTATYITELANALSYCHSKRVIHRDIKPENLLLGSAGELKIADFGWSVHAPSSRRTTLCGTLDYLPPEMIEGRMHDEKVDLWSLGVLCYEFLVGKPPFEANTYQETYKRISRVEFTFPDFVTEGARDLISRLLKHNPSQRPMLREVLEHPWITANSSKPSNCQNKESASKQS
# T32 sequence (Q16659 whole entry): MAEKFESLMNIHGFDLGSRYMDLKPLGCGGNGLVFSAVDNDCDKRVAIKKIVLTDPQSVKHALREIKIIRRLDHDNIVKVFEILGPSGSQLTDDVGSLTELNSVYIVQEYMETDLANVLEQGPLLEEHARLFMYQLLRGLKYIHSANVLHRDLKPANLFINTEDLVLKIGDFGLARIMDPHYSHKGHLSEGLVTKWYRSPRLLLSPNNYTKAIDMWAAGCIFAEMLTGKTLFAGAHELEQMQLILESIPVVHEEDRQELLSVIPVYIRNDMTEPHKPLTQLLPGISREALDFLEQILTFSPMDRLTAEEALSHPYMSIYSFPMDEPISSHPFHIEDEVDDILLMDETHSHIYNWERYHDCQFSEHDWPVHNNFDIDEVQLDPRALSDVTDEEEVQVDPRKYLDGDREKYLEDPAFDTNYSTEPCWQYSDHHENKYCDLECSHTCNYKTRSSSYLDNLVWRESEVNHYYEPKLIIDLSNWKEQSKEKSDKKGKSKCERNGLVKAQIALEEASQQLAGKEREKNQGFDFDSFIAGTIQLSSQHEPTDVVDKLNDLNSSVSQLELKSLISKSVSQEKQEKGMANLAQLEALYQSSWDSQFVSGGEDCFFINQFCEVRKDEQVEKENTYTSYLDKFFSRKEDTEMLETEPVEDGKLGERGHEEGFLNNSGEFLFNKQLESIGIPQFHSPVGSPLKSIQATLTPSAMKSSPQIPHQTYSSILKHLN
# T14 sequence (P06213 28-1382): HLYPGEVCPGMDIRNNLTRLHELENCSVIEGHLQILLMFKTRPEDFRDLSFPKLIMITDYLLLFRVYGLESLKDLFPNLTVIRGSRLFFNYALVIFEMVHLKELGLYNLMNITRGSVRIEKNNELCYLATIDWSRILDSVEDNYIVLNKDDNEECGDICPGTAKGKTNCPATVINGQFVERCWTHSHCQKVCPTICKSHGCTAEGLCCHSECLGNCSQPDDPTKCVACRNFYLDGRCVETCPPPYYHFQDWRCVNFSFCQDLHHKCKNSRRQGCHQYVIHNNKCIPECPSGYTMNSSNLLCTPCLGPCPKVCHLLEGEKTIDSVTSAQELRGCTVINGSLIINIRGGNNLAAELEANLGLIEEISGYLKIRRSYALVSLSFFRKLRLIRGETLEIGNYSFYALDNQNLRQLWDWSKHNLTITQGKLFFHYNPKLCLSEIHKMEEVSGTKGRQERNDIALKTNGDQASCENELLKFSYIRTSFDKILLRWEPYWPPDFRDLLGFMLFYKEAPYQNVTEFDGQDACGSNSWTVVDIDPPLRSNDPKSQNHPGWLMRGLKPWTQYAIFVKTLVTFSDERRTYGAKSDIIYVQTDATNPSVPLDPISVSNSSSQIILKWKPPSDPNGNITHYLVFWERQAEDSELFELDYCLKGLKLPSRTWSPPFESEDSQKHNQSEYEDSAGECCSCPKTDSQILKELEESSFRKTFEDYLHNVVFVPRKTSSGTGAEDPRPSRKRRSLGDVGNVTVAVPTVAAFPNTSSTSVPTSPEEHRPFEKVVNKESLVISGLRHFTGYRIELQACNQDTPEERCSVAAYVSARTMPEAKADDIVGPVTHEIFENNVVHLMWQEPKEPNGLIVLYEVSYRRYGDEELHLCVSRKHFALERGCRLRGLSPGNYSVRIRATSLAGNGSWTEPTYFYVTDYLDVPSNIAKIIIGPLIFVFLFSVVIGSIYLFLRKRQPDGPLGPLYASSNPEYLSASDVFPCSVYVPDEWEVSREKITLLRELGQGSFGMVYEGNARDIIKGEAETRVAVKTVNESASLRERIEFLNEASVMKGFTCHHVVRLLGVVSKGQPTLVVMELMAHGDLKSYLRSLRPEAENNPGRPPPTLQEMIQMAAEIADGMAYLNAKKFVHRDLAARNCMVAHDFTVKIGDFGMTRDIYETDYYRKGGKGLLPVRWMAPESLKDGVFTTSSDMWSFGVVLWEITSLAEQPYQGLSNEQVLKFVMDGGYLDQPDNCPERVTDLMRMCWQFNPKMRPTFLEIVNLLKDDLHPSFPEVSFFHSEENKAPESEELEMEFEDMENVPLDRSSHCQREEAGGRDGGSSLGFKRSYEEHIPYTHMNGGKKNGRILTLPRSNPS
# T3 sequence (P23458 875-1153 limits assumed): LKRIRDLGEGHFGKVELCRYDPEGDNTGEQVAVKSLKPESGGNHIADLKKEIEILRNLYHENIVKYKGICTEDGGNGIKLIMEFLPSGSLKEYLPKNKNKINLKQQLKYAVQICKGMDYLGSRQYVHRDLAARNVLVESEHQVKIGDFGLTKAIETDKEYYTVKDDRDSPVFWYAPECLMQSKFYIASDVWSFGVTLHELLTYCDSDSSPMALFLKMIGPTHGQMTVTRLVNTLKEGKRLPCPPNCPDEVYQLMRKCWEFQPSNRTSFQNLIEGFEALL
SMILES,% Ctrl (KIT-autoinhibited) [% Ctrl],% Ctrl (MEK5) [% Ctrl],% Ctrl [1] [% Ctrl],% Ctrl (FLT3) [% Ctrl],% Ctrl (LOK) [% Ctrl],% Ctrl (BRSK2) [% Ctrl],% Ctrl (GRK1) [% Ctrl],% Ctrl (ADCK4) [% Ctrl],% Ctrl (MEK2) [% Ctrl],% Ctrl [2] [% Ctrl],% Ctrl (TGFBR1) [% Ctrl],% Ctrl [3] [% Ctrl],% Ctrl (KIT(V559D)) [% Ctrl],% Ctrl (INSR) [% Ctrl],% Ctrl (TSSK1B) [% Ctrl],% Ctrl (MAP3K15) [% Ctrl],% Ctrl (TNK2) [% Ctrl],% Ctrl (CDK5) [% Ctrl],% Ctrl (AURKA) [% Ctrl],% Ctrl (ACVR1) [% Ctrl],other results
"CN(C)C(=O)c1ccc(N2CCCN(c3ccnc4sc(C(N)=O)c(N)c34)CC2)cc1 [15u, 3-amino-4-(4-(4-(dimethylcarbamoyl)phenyl)-1,4-diazepan-1-yl)thieno[2,3-b]pyridine-2-carboxamide]",90,86,57,94,84,100,98,95,88,99,100,83,98,97,80,97,100,84,98,100,% Ctrl (ERK4): 72 % Ctrl; % Ctrl (PAK3): 80 % Ctrl; % Ctrl (BMPR2): 79 % Ctrl; % Ctrl (PAK6): 82 % Ctrl; % Ctrl (YANK2): 89 % Ctrl; % Ctrl (NEK5): 94 % Ctrl; % Ctrl (DYRK2): 100 % Ctrl; % Ctrl (CAMK4): 96 % Ctrl; % Ctrl (PCTK3): 100 % Ctrl; % Ctrl (ERN1): 100 % Ctrl; % Ctrl (NEK1): 80 % Ctrl; % Ctrl (ERK3): 88 % Ctrl; % Ctrl (FER): 99 % Ctrl; % Ctrl (EPHB6): 95 % Ctrl
"[2H]C([2H])([2H])N(C(=O)c1ccc(N2CCCN(c3ccnc4sc(C(N)=O)c(N)c34)CC2)cc1)C([2H])([2H])[2H] [15u_D6, 3-amino-4-(4-(4-(bis(methyl-d3)carbamoyl)phenyl)-1,4-diazepan-1-yl)thieno[2,3-b]pyridine-2-carboxamide]",90,65,82,86,69,100,81,83,82,100,100,80,91,80,99,92,100,94,99,100,% Ctrl (ERK4): 100 % Ctrl; % Ctrl (PAK3): 40 % Ctrl; % Ctrl (BMPR2): 88 % Ctrl; % Ctrl (PAK6): 99 % Ctrl; % Ctrl (YANK2): 84 % Ctrl; % Ctrl (NEK5): 100 % Ctrl; % Ctrl (DYRK2): 97 % Ctrl; % Ctrl (CAMK4): 79 % Ctrl; % Ctrl (PCTK3): 100 % Ctrl; % Ctrl (ERN1): 80 % Ctrl; % Ctrl (NEK1): 96 % Ctrl; % Ctrl (ERK3): 94 % Ctrl; % Ctrl (FER): 100 % Ctrl; % Ctrl (EPHB6): 89 % Ctrl

# — US11572369B2, “Bicyclic pyridine compositions and methods of using the same for cancer therapy” (UNIVERSITY OF SOUTH CAROLINA, priority 2019, dated 2023)
